# Laboratory results as given in US20230234941A1, “Salts of Compound and Pharmaceutical Compositions Containing the Same” (Shenzhen Forward Pharmaceuticals Co., Limited., priority 2020, published 2023).
# Where two headings read alike, the source gives them in different places.
# Legend:
# Assay type in all cases: physicochemical
# [1] = Chemical and physical stability of the salts at the end of the preparation
# Text: It is crucial for drug development whether the salts obtained as above have chemical and physical stability at the end of the preparation. The chemical and physical stability of the salts at the end of the preparation includes: […]
# [2] = Solid solubility test (2 h and 24 h); details: for XRPD measured at 2 h: state of sample / solid fraction; for XRPD measured at 24 h: 24 h test, state of sample; for solubility at 2 h: 37 °C, thermodynamic from solid
# Description: samples were weighed for each amorphous salt solid (equivalent to 20 mg of free base), and 10 mL of the following solvents were respectively added: 0.1N HCl solution (pH 1.0), 50 mM phosphate buffer (pH 4.5), FeSSIF-V1 (pH 5.0), FaSSIF-V1 (pH 6.5) and SGF (pH 2.0), […] The suspension was then centrifuged at 37° C., the supernatant was measured for solubility by HPLC, and the solid fraction was measured for XRPD. The target solubility was at least 2 mg (based on free base)/mL.
# [3] = Solid storage stability test; details: for Original morphology / Original purity: original solid before storage; for chemical and physical stability after storage (summary): solid/25° C./60% RH/open/1 week and/or solid/60° C./closed container/1 week
# Description: Each amorphous salt solid was weighed (two 2 mg samples were weighed for purity testing after solid storage stability study, and one 10 mg sample was weighed for XRPD testing after solid storage stability study) and placed in a glass vial. In a 25° C./60% RH solid storage stability test, the amorphous salt solid was placed in a 25° C./60% RH constant temperature and humidity chamber, and placed in the dark for 1 week (i.e. “solid/25° C./60% RH/open/1 week”), and in a 60° C. solid storage stability test, the amorphous salt solid was sealed in an oven at 60° C. and heated for 1 week in the dark (i.e. “solid/60° C./closed container/l week”). Then the sample was taken out for purity testing, crystal form detection and appearance observation, respectively.
# [4] = listed as amorphous 1 eq. mesylate salt
# [5] = FaSSIF-V1 (pH 6.5) (Test ES4, partly printed ES1)
# [6] = FaSSIF-V1 (pH 6.5) (Test ES4, partly printed ES1), 37° C., based on free base
# [7] = Test ES1: 0.1N HCl solution (pH 1.0)
# [8] = Test ES1: 0.1N HCl solution (pH 1.0), 37° C., based on free base
# [9] = Test ES2: 50 mM phosphate buffer (pH 4.5)
# [10] = Test ES2: 50 mM phosphate buffer (pH 4.5), 37° C., based on free base
# [11] = Test ES3: FeSSIF-V1 (pH 5.0), 37° C., based on free base
# [12] = Test ES5: SGF (pH 2.0), 37° C., based on free base
# [13] = Test BS1: solid/25° C./60% RH/open/1 week
# [14] = solid/60° C./closed container/1 week (Test BS1)
# [15] = listed as amorphous 2 eq. mesylate salt
# [16] = listed as amorphous 1 eq. besylate salt
# [17] = listed as amorphous 2 eq. besylate salt
Structure (SMILES),"pH measured at 2 h [2, 5]","Solubility measured at 2 h [2, 6]","XRPD measured at 2 h [2, 5]","pH measured at 2 h [2, 7]","Solubility measured at 2 h [2, 8]","XRPD measured at 2 h [2, 7]","pH measured at 2 h [2, 9]","Solubility measured at 2 h [2, 10]","XRPD measured at 2 h [2, 9]",pH measured at 2 h ([2]; Test ES3: FeSSIF-V1 (pH 5.0)),"Solubility measured at 2 h [2, 11]",XRPD measured at 2 h ([2]; Test ES3: FeSSIF-V1 (pH 5.0)),pH measured at 2 h ([2]; Test ES5: SGF (pH 2.0)),"Solubility measured at 2 h [2, 12]",XRPD measured at 2 h ([2]; Test ES5: SGF (pH 2.0)),"Purity [3, 13]",Original morphology [3],Original purity [3],"Purity [3, 14]",other results
C=CC(=O)Nc1cc(Nc2ncnc(-c3cn(C)c4ccccc34)n2)c(OC)cc1N(C)CCN(C)C [Example 4],(6.5),>2 mg/mL,clear solution,(0.7),>2 mg/mL,clear solution,(4.5),>2 mg/mL,clear solution,(4.8),>2 mg/mL,clear solution,(2.0),>2 mg/mL,clear solution,99.8%,amorphous,99.9%,99.9%,"chemical and physical stability at the end of the preparation ([1]; listed as 1 eq. mesylate salt): chemically and physically stable; chemical and physical stability at the end of the preparation [1, 4]: chemically and physically stable; Solubility measured at 24 h ([2]; Test ES3: FeSSIF-V1 (pH 5.0)): >2 mg/mL; pH measured at 24 h ([2]; Test ES3: FeSSIF-V1 (pH 5.0)): (5.0); XRPD measured at 24 h ([2]; Test ES3: FeSSIF-V1 (pH 5.0)): clear solution; Solubility measured at 24 h ([2]; Test ES4: FaSSIF-V1 (pH 6.5)): >2 mg/mL; pH measured at 24 h ([2]; Test ES4: FaSSIF-V1 (pH 6.5)): (6.6); XRPD measured at 24 h ([2]; Test ES4: FaSSIF-V1 (pH 6.5)): clear solution; chemical and physical stability after storage (summary) ([3]; listed as 1 eq. mesylate salt): chemically and physically stable; chemical and physical stability after storage (summary) [3, 4]: chemically and physically stable; physical and chemical stability under storage (in words) ([3]; solid/25° C./60% RH/open/1 week, listed as amorphous 1 eq. mesylate salt): good physical and chemical stability; physical and chemical stability under storage (in words) ([3]; solid/60° C./closed container/1 week, listed as amorphous 1 eq. mesylate salt): good physical and chemical stability"
C=CC(=O)Nc1cc(Nc2ncnc(-c3cn(C)c4ccccc34)n2)c(OC)cc1N(C)CCN(C)C [Example 5],(6.2),>2 mg/mL,clear solution,(0.7),>2 mg/mL,clear solution,(4.2),>2 mg/mL,clear solution,(4.8),>2 mg/mL,clear solution,(1.8),>2 mg/mL,clear solution,99.9%,amorphous,99.9%,99.8%,"chemical and physical stability at the end of the preparation ([1]; listed as 2 eq. mesylate salt): chemically and physically stable; chemical and physical stability at the end of the preparation [1, 15]: chemically and physically stable; chemical and physical stability after storage (summary) ([3]; listed as 2 eq. mesylate salt): physically unstable; chemical and physical stability after storage (summary) [3, 15]: physically unstable; physical and chemical stability under storage (in words) ([3]; solid/25° C./60% RH/open/1 week, listed as amorphous 2 eq. mesylate salt): transformed from amorphous to a low crystallinity and showed a certain hygroscopicity (agglomeration); physical and chemical stability under storage (in words) ([3]; solid/60° C./closed container/1 week, listed as amorphous 2 eq. mesylate salt): a certain hygroscopicity (partial agglomeration)"
C=CC(=O)Nc1cc(Nc2ncnc(-c3cn(C)c4ccccc34)n2)c(OC)cc1N(C)CCN(C)C [Example 6],(6.5),>2 mg/mL,clear solution,(0.7),>2 mg/mL,clear solution,(4.5),>2 mg/mL,clear solution,(4.8),>2 mg/mL,clear solution,(2.1),>2 mg/mL,clear solution,98.2%,amorphous,99.7%,99.6%,"chemical and physical stability at the end of the preparation ([1]; listed as 1 eq. besylate salt): chemically and physically stable; chemical and physical stability at the end of the preparation [1, 16]: chemically and physically stable; decrease in purity ([3]; solid/25° C./60% RH/open/1 week): about 2%; chemical and physical stability after storage (summary) ([3]; listed as 1 eq. besylate salt): chemically unstable; chemical and physical stability after storage (summary) [3, 16]: chemically unstable; physical and chemical stability under storage (in words) ([3]; solid/60° C./closed container/1 week, listed as amorphous 1 eq. besylate salt): good physical and chemical stability"
C=CC(=O)Nc1cc(Nc2ncnc(-c3cn(C)c4ccccc34)n2)c(OC)cc1N(C)CCN(C)C [Example 7],(6.1),>2 mg/mL,clear solution,(0.8),1.8 mg/mL,–,(4.2),>2 mg/mL,clear solution,L(4.8),>2 mg/mL,clear solution,(1.7),>2 mg/mL,clear solution,99.6%,amorphous,99.6%,99.4%,"chemical and physical stability at the end of the preparation ([1]; listed as 2 eq. besylate salt): chemically and physically stable; chemical and physical stability at the end of the preparation [1, 17]: chemically and physically stable; solubility at 2 h ([2]; 0.1N HCl solution, pH 1, simulated gastric fluid, Test ES1: 0.1N HCl solution (pH 1.0), 37° C., based on free base, read-out: Solubility measured at 2 h): < 2 mg/mL; solubility at 2 h ([2]; not achieved in some solvents / greater in various solvents, read-out: solubility in solvents that mimic physiological conditions): < 2 mg/mL; chemical and physical stability after storage (summary) ([3]; listed as 2 eq. besylate salt): physically unstable; chemical and physical stability after storage (summary) [3, 17]: physically unstable; physical and chemical stability under storage (in words) ([3]; solid/25° C./60% RH/open/1 week, listed as amorphous 2 eq. besylate salt): slight color change and showed significant hygroscopicity (caking and fusion to a glassy state); physical and chemical stability under storage (in words) ([3]; solid/60° C./closed container/1 week, listed as amorphous 2 eq. besylate salt): good physical and chemical stability"
